Source: PMC6651341, “EDB-FN Targeted Peptide–Drug Conjugates for Use against Prostate Cancer” (International Journal of Molecular Sciences, 2019)
Several values for one entry are separate records, joined by “and”; a condition that tells them apart may be missing. Equal values may be shown once. Where a SMILES comes first, the peptide text is derived from it. Bridges are numbered along the chain shown (N, C = ends). [ ]: non-standard residue; d: D form. The star is where a group is joined. X1 = CC(=O)O[C@@]12CO[C@@H]1C[C@H](O)[C@@]1(C)C(=O)[C@H](O)C3=C(C)[C@@H](OC(=O)[C@H](OC(=O)CCNC(=O)C4CCC(CN5C(=O)CC(*)C5=O)CC4)[C@@H](NC(=O)OC(C)(C)C)c4ccccc4)C[C@@](O)([C@@H](OC(=O)c4ccccc4)[C@H]21)C3(C)C; Doxorubicin(Traut) = COc1cccc2c1C(=O)c1c(O)c3c(c(O)c1C2=O)C[C@@](O)(C(=O)CO)C[C@@H]3O[C@H]1C[C@H](NC(=N)CCCS*)[C@H](O)[C@H](C)O1; Ahx = NCCCCCC(=O)O

How the values were obtained:
[1] = Stability under redox conditions with dithiothreitol (DTT); assay type: physicochemical; settings: PBS pH 7.4, 12 equiv DTT (0.12 mM DTT, 0.010 mM peptide), analytical HPLC 214 nm, % remaining from AUC
Procedure: (§1) The stability of peptide–drug conjugate 13 was evaluated in the phosphate buffered saline (PBS). The pH of PBS was adjusted to 6.8, 7.0, 7.4 using HCl and NaOH as needed. In brief, 250 µL of 1 × PBS was mixed with 45 µL of 0.25 mM Dox-peptide conjugate 13. The mixture was incubated at 37 °C in a water bath covered with aluminum foil. An aliquot (40 µL) was removed at different time intervals, such as 4, 24, and 84 h and analyzed using analytical RP-HPLC at 490 nm. The percentage of the remained peptide was calculated using the area under the curve (AUC) by integrating the chromatogram in analytical HPLC. For evaluation of stability in DTT, a solution of DTT (0.120 mM) was prepared using PBS (pH 7.4). A solution of compounds (1, 8, and 13 at 1 mM) was prepared in PBS (pH = 7.4). A volume of 45 µL of the peptide was added to 2.250 mL of PBS in a UV-blocking glass vial. The glass vials were put under nitrogen and stirred using a small magnetic bead. A volume of DTT ([…], 12 equiv) was added to the solution, which was incubated with each peptide sample to obtain a working concentration of 0.12 mM DTT and 0.010 mM peptide. Aliquots of 200 µL were collected at different time intervals and analyzed using analytical HPLC vials (0 min was used as controls without DTT) after quenching the DTT with 10 µL of H2O (pH = 2). The aliquots were run on analytical HPLC with detection at 214 nm.

[2] = tested on: RWPE-1, PC3, LNCap, Du-145 cell lines; assay: MTS cell viability, range over four cell lines; assay type: cell-based, human; settings: 5 µM, 72 h incubation
Text: (§2) Human epithelial prostate cell line (RWPE-1, ATCC No. CRL-11610), human prostate cancer cell line (Human prostate carcinoma DU-145, ATCC No. HTB-81), human adenocarcinoma PC3, ATCC No. CRL-1435), androgen-sensitive human prostate adenocarcinoma cells (LNCaP, ATCC No. CRL-1740), and castration-resistant LNCaP-derived C4-2 (ATCC No. CRL-1595) were purchased from American Type Culture Collection (ATCC), Manassas, VA, USA. All the media, serum, and antibiotics were bought from American Type Culture Collection (ATCC) (Manassas, VA, USA) and Sigma life-science (St. Louis, MO, USA). Keratinocytes SFM (1×) with EGF + BPE was bought from Gibco life technologies (Thermo Fisher Scientific), Gaithersburg, MD, USA. CellTiter 96 was bought from Promega, Madison, WI, USA. Dithiothreitol (DTT) was bought from Thermo Fisher scientific, Carlsbad, CA, USA, and TGF-β was bought from Abcam, Boston, MA, USA.
(§3) Cell-proliferation assay using MTS reagent was conducted against five cell lines (RWPE-1, PC3, DU-145, LNCaP, and, C4-2). Cells were seeded into 96-well plates (5 × 10^3 cells for all the cells) and incubated with 100 µL of complete medium (RPMI-1640 for RWPE-1, DU-145, LNCaP, and C4-2; DMEM for PC3) overnight at 37 °C with 5% CO2. Various concentrations (0, 0.06, 0.6, 6, 60, 600 μM) of the peptide solution (20 μL) were added to cells to yield the final concentrations of peptide (0, 0.01, 0.1, 1, 10, 100 μM). The cells were kept in an incubator (37 °C, 5% CO2) for 24, 48, or 72 h accordingly for different treatment time responses. […] The absorbance was obtained at 490 nm using SpectraMax M2 microplate reader to detect the formazan product. […] The percentage of cell viability was calculated by [(OD value of cells treated with the test mixture of compounds) − (OD value of culture medium)] / [(OD value of control cells) − (OD value of culture medium)] × 100%. […] Cell viability was determined by measuring the absorbance at 490 nm using SpectraMax M2 microplate spectrophotometer, as mentioned above.

[3] = tested on: C4-2 cells with TGF-β treatment (EDB-FN overexpression); assay: MTS cell viability of C4-2 cells treated with TGF-β to overexpress EDB-FN; assay type: cell-based, human; settings: C4-2, TGF-β 10 ng/mL for 3 days; for decrease in cell viability in TGF-β treated cells as compared to untreated cells: after 72 h
Procedure: Cell-proliferation assay using MTS reagent was conducted against five cell lines (RWPE-1, PC3, DU-145, LNCaP, and, C4-2). Cells were seeded into 96-well plates (5 × 10^3 cells for all the cells) and incubated with 100 µL of complete medium (RPMI-1640 for RWPE-1, DU-145, LNCaP, and C4-2; DMEM for PC3) overnight at 37 °C with 5% CO2. Various concentrations (0, 0.06, 0.6, 6, 60, 600 μM) of the peptide solution (20 μL) were added to cells to yield the final concentrations of peptide (0, 0.01, 0.1, 1, 10, 100 μM). The cells were kept in an incubator (37 °C, 5% CO2) for 24, 48, or 72 h accordingly for different treatment time responses. Then, a CellTiter 96 aqueous solution (20 μL) was added to each well and incubated for 4 h under the same condition. The absorbance was obtained at 490 nm using SpectraMax M2 microplate reader to detect the formazan product. Wells containing cells in the absence of any peptide were used as a control. The percentage of cell viability was calculated by [(OD value of cells treated with the test mixture of compounds) − (OD value of culture medium)] / [(OD value of control cells) − (OD value of culture medium)] × 100%. […] Cell viability was determined by measuring the absorbance at 490 nm using SpectraMax M2 microplate spectrophotometer, as mentioned above.
To compare the cytotoxicity of compounds using treatment of TGF-β, the cells were culture, and 8000 cells (RPWE-1, PC3, DU-145, LNCap, and C4-2) were added in 120 μL per well with TGF-β treatment. Cells were exposed to TGF-β at 10 ng/mL for 3 days. Then cells were seeded in the corresponding medium (DMEM containing 10% FBS and 1% penicillin–streptomycin for DU-145, LNCaP, and PC3; keratinocyte containing 0.1% FBS without antibiotics for RWPE-1), 24 h prior to the experiment. Then, MTS assay was followed up, as mentioned in 3.5.1.

[4] = Stability in PBS at different pH; assay type: physicochemical; settings: pH values ranging from 6.5 to 7.4 (method: 6.8, 7.0, 7.4), 37 °C, aliquots at 4, 24, 84 h, analytical RP-HPLC 490 nm, % remaining from AUC
Procedure: as §1

[5] = Stability in 25% human serum; assay type: in vitro ADME; settings: 25% human serum in RPMI-1640, 37 °C, conjugate 125 µM, aliquots 2-120 min, methanol precipitation, analytical HPLC, trendline R^2 0.978, each point average of three readings
Procedure: The stability was performed using 25% human serum. 325 µL of RPMI-1640 media was incubated with 125 µL of human serum at 37 °C in a water bath. Then 50 µL of 125 µM of conjugate 13 was added to the RPMI and serum. The control experiment was performed without conjugate using an aqueous 5% DMSO. Several aliquots (55 µL) were removed at 2, 5, 10, 15, 30, 60, 90, and 120 min. The aliquots were added to 120 µL of cold methanol to precipitate the serum proteins with vigorous mixing using vortex and kept at ice for 10 min. Then, the samples were centrifuged at 17× g (13,300 rpm) for 10 min to get a pellet of the insoluble peptide. The supernatant was collected and analyzed on analytical HPLC, as mentioned before.

Human cathepsin B = biological target: T1, Human cathepsin B (Homo sapiens, UniProt P07858); assay: Hydrolysis with cathepsin B enzyme; assay type: in vitro ADME; settings: activated human cathepsin B, 50 mM acetate buffer pH 5.0 with 1 mM EDTA, 8 µL of 1 mM conjugate per 200 µL, HPLC 214/490 nm and MALDI-TOF
T1 construct: purchased Athens Research Lot # CB2016-02 (a lot number; no catalogue number given)
Procedure: Human cathepsin B (CTSB, Lot # CB2016-02 from Athens Research, Athens, GA, USA) was used to hydrolyze the cathepsin linker GFLG in conjugated peptide 13. A stock solution of cathepsin B enzyme (0.434 µg/µL) was prepared using 50 mM acetate (pH 5.0) buffer with 1 mM EDTA. The activation buffer was separately prepared using 30 mM DTT and 15 mM EDTA in H2O. An aliquot of 2.25 µL of cathepsin B stock was activated with 5 µL of activation buffer for 15 min at room temperature then diluted with 1.185 mL of acetate buffer and aliquoted into different tubes with 200 µL each. Further 8 µL of 1 mM of conjugated peptide 13 was added to aliquots and incubated for various time intervals. Then, the reaction was quenched by boiling to denature cathepsin B for 10 min. A 400 µL of cold methanol was added to precipitate the proteins followed by centrifugation of sample 17× g (13,300 rpm) for 10 min. A supernatant (500 µL) was collected, evaporated, and reconstituted with 300 µL of HPLC solvent A (H2O with 0.1% TFA). The eluent fraction from HPLC was further collected and analyzed using MALDI-TOF mass spectrometry to confirm the hydrolysis of the conjugate.

C4-2 = assay: MTS cell viability assay, C4-2 without TGF-β; assay type: cell-based, human; settings: C4-2 without TGF-β, 24–72 h
Text: as §2, §3

PC3 = assay: MTS cell viability assay, PC3; assay type: cell-based, human; settings: PC3, 2 h incubation, 0.01-100 µM in 5% DMSO
Text: as §2, §3

Structure (SMILES)	cell proliferation (cell viability), range over all four cell lines [2]	decrease in cell viability in TGF-β treated cells as compared to untreated cells [3]	cytotoxicity compared to drug alone (C4-2)	toxicity at or below 10 µM (PC3)	further results
CC(C)[C@@H]1NC(=O)[C@H]([C@@H](C)O)NC(=O)[C@@H](N)CCCCNC(=O)CC[C@@H](C(N)=O)NC(=O)[C@H](CC(=O)O)NC(=O)[C@H](C)NC(=O)[C@H](CO)NC(=O)[C@H]([C@@H](C)O)NC(=O)[C@H](CCCNC(=N)N)NC1=O [compound 8] (H-KTVRTSADE-NH2; lactam 1-9)					half-life / stability under redox conditions (DTT) [1]: > 8 h and 8 h
CC(=O)O[C@@]12CO[C@@H]1C[C@H](O)[C@@]1(C)C(=O)[C@H](O)C3=C(C)[C@@H](OC(=O)[C@H](O)[C@@H](NC(=O)OC(C)(C)C)c4ccccc4)C[C@@](O)([C@@H](OC(=O)c4ccccc4)[C@H]21)C3(C)C [Doce, docetaxel, reference compound]	54–61%	16%			
COc1cccc2c1C(=O)c1c(O)c3c(c(O)c1C2=O)C[C@@](O)(C(=O)CO)C[C@@H]3O[C@H]1C[C@H](NC(=N)CCCSSC[C@H](N)C(=O)NCC(=O)N[C@@H](Cc2ccccc2)C(=O)N[C@@H](CC(C)C)C(=O)NCC(=O)NCCCCCC(=O)N[C@H]2CCCCNC(=O)CC[C@@H](C(N)=O)NC(=O)[C@H](CC(=O)O)NC(=O)[C@H](C)NC(=O)[C@H](CO)NC(=O)[C@H]([C@@H](C)O)NC(=O)[C@H](CCCNC(=N)N)NC(=O)[C@H](C(C)C)NC(=O)[C@H]([C@@H](C)O)NC2=O)[C@H](O)[C@H](C)O1 [compound 13] (H-C(Doxorubicin(Traut))GFLG[Ahx]KTVRTSADE-NH2; lactam 7-15)	25–35%	17%	less cytotoxic as compared to drug alone	no significant toxicity	half-life in PBS [4]: ~ 10 h; half-life at 12.5 µM [5]: ~0.197 h; time within which cathepsin B cleaves the GFLG linker / releases drug (Human cathepsin B): ≤ 5 min
COc1cccc2c1C(=O)c1c(O)c3c(c(O)c1C2=O)C[C@@](O)(C(=O)CO)C[C@@H]3O[C@H]1C[C@H](N)[C@H](O)[C@H](C)O1 [Dox, doxorubicin, reference compound]	20–34%			no significant toxicity	effect of TGF-β treatment on cytotoxicity compared to TGF-β untreated cells [3]: no observed effect
CC(=O)O[C@@]12CO[C@@H]1C[C@H](O)[C@@]1(C)C(=O)[C@H](O)C3=C(C)[C@@H](OC(=O)[C@H](OC(=O)CCNC(=O)C4CCC(CN5C(=O)CC(SC[C@H](N)C(=O)NCC(=O)N[C@@H](Cc6ccccc6)C(=O)N[C@@H](CC(C)C)C(=O)NCC(=O)NCCCCCC(=O)N[C@H]6CCCCNC(=O)CC[C@@H](C(N)=O)NC(=O)[C@H](CC(=O)O)NC(=O)[C@H](C)NC(=O)[C@H](CO)NC(=O)[C@H]([C@@H](C)O)NC(=O)[C@H](CCCNC(=N)N)NC(=O)[C@H](C(C)C)NC(=O)[C@H]([C@@H](C)O)NC6=O)C5=O)CC4)[C@@H](NC(=O)OC(C)(C)C)c4ccccc4)C[C@@](O)([C@@H](OC(=O)c4ccccc4)[C@H]21)C3(C)C (stereo partly drawn) [compound 14] (H-C(X1)GFLG[Ahx]KTVRTSADE-NH2; lactam 7-15)		10%	less cytotoxic as compared to drug alone		
